This is an account of results in patent US20060120975A1, “Oral care composition comprising a phenolic compound and antioxidant vitamins and vitamin derivatives” (Colgate-Palmolive Company, priority 2004, published 2006).

The test has as its system IL-1β stimulated PGE2 production. The experiment in a line: IL-1β stimulated PGE2 production cell culture assay, an inflammation model. Type of test: cell-based. Conditions: vitamin or vitamin derivative added to triclosan. From the text: The present invention is in part derived from a finding that, upon addition of an antioxidant vitamin or vitamin derivative to an antibacterial phenolic compound having anti-inflammatory activity, in particular a halogenated diphenylether compound having such activity, the anti-inflammatory activity can be enhanced.

Consider `CC(=O)Oc1c(C)c(C)c2c(c1C)CCC(C)(CCC[C@H](C)CCC[C@H](C)CCCC(C)C)O2` (some centres unmarked) [vitamin E acetate], for which the “enhancing the anti-inflammatory activity of triclosan” value is “especially effective”.

In the case of `Cc1c(C)c2c(c(C)c1O)CCC(C)(C(=O)O)O2` (centres unmarked) [TROLOX®], the “enhancing the anti-inflammatory activity of triclosan” value is recorded as “especially effective”.

With `CCCCCCCCCCCCCCCC(=O)OC[C@H](O)[C@H]1OC(=O)C(O)=C1O` [Ascorbyl palmitate, ascorbyl palmitate], the “enhancing the anti-inflammatory activity of triclosan” value was “less dramatic enhancement”.

On to vitamin E, for which the “enhancing the anti-inflammatory activity of triclosan” value is reported as “less dramatic enhancement”.

For `O=C1O[C@H]([C@@H](O)CO)C(O)=C1O` [ascorbic acid], the “enhancing the anti-inflammatory activity of triclosan” value is “especially effective”.
